Results on three compounds are retold here after ChEMBL document CHEMBL5335812, “PSMA-targeted SMART molecules outfitted with SN38” (Bioorg Med Chem Lett, 2024).

Data set [1] is described as follows: Stability of the compound assessed as kinetic half life at pH 4.5. It counts as physicochemical. The conditions noted are these: buffer.
The nature of data set [2]: Stability of the compound assessed as hydrolysis at pH 7.4 measured after 8 hrs by 31P NMR. It counts as physicochemical. Particulars: buffer, pH 7.4, 8 h.
The nature of data set [3]: Stability of the compound assessed as kinetic half life at pH 5. It counts as physicochemical. The conditions noted are these: buffer.
A short description of data set [4]: Stability of the compound assessed as kinetic half life at pH 5.5. Particulars: buffer. It counts as physicochemical.
Data set [5] can be described thus: Stability of the compound at pH 7.4. It counts as physicochemical. The conditions noted are these: buffer.
A short description of data set [6]: Stability of the compound assessed as kinetic half life at pH 6. Format: physicochemical. Particulars: buffer.
Data set [7] is described as follows: Drug metabolism in human PC-3 cells with PSMA knockout assessed as intracellular SN38 release incubated for 30 min by confocal microscopy. Particulars: pc-3, 0.5 h. Format: ADME, cell-based.
Data set [8] can be described thus: Drug metabolism in human C4-2B cells expressing PSMA assessed as payload release incubated for 30 min by confocal microscopy. Format: ADME, cell-based. The conditions noted are these: lncap c4-2b, 0.5 h.
For another data set, the system named is LNCaP C4-2B. Nature of the data set: Antiproliferative activity against human C4-2B cells expressing PSMA assessed as reduction in cell viability incubated for 72 hrs by cellTiter-Glo Luminescent cell viability assay. On the technique in general: ATP-based viability assays read luminescence as a measure of living cells.
The next data set relates to PC-3. The data set is described as follows: Antiproliferative activity against human PC-3 cells with PSMA knockout assessed as reduction in cell viability incubated for 72 hrs by cellTiter-Glo Luminescent cell viability assay. Format: functional, cell-based.
Data set [9] is described as follows: Stability of the compound assessed as payload release at pH 5.0 measured after 18 hrs by fluorescence based analysis. Format: physicochemical. The conditions noted are these: buffer, pH 5, 18 h.
Data set [10] in a line: Stability of the compound assessed as payload release at pH 5.5 measured after 18 hrs by fluorescence based analysis. It counts as physicochemical. The conditions noted are these: buffer, pH 5.5, 18 h.
Data set [11] can be described thus: Stability of the compound assessed as payload release at pH 7.4 measured after 18 hrs by fluorescence based analysis. Format: physicochemical. Particulars: buffer, pH 7.4, 18 h.

The source made the active and inactive calls. No cut-off for these calls is given here.

In general, half-life refers to how long it takes for the measured level to halve. Consider `CCc1c2c(nc3ccc(OC(=O)N(C)CCN(C)P(=O)(O)OCC[C@H](NC(=O)c4ccc(CN=[N+]=[N-])cc4)C(=O)O)cc13)-c1cc3c(c(=O)n1C2)COC(=O)[C@]3(O)CC`, for which the half-life was 1.9 h in [1], 4.3 h in data set [3], 11 h in [4] and 42 h in data set [6]. The Stability entry in data set [2] and in [5] was “Stable” each time.

One may read the IC50 as the concentration that gives 50% inhibition. With `CCc1c2c(nc3ccc(OC(=O)N(C)CCN(C)P(=O)(O)OCC[C@H](NC(=O)c4ccc(Cn5nnc6c5-c5ccccc5CN(C(=O)CCC(=O)NCCOCCOCCOCCOCCC(=O)NCCCCCC(=O)N[C@@H](CCC(=O)N[C@@H](CCCOP(=O)(O)N[C@@H](CCC(=O)O)C(=O)O)C(=O)O)C(=O)O)c5ccccc5-6)cc4)C(=O)O)cc13)-c1cc3c(c(=O)n1C2)COC(=O)[C@]3(O)CC`, the Drug metabolism entry is on record as “Metabolite_Notdetected” in data set [7] and “Metabolite_Detected” in data set [8]. In addition, the IC50 in the data set with LNCaP C4-2B is 3 nM. Also, the result with PC-3 was inactive.

On to `CCc1c2c(nc3ccc(O)cc13)-c1cc3c(c(=O)n1C2)COC(=O)[C@]3(O)CC` [7-ETHYL-10-HYDROXYCAMPTOTHECIN], for which the Activity in data set [9] is given as 25%; in data set [10] it was ~ 25%. Further, the Stability entry in data set [11] is reported as “Stable”.
